Reference: PubChem BioAssay (NCI)
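Method: 48-hour compound exposure of cells in 96-well plates, five concentrations, linear interpolation of endpoints. TGI: concentration producing complete growth inhibition.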

Assays:
Test in all cases: DTP human tumour cell line panel, 48 h
A498 renal = test system: A498 renal
SK-OV-3 ovarian = test system: SK-OV-3 ovarian
UACC-257 melanoma = test system: UACC-257 melanoma
A549 NSCLC = test system: A549 NSCLC
DU-145 prostate = test system: DU-145 prostate
U251 CNS = test system: U251 CNS
CCRF-CEM leukemia = test system: CCRF-CEM leukemia
UACC-62 melanoma = test system: UACC-62 melanoma
MCF7 breast = test system: MCF7 breast
SW-620 colon = test system: SW-620 colon
SF-539 CNS = test system: SF-539 CNS
MDA-N = test system: MDA-N
OVCAR-4 ovarian = test system: OVCAR-4 ovarian
TK-10 renal = test system: TK-10 renal
NCI-H23 lung = test system: NCI-H23 lung
K-562 leukemia = test system: K-562 leukemia
SK-MEL-2 melanoma = test system: SK-MEL-2 melanoma
HCT-15 colon = test system: HCT-15 colon
HOP-92 NSCLC = test system: HOP-92 NSCLC
IGROV1 ovarian = test system: IGROV1 ovarian

| Compound | TGI (A498 renal) [µM] | TGI (SK-OV-3 ovarian) [µM] | TGI (UACC-257 melanoma) [µM] | TGI (A549 NSCLC) [µM] | TGI (DU-145 prostate) [µM] | TGI (U251 CNS) [µM] | TGI (CCRF-CEM leukemia) [µM] | TGI (UACC-62 melanoma) [µM] | TGI (MCF7 breast) [µM] | TGI (SW-620 colon) [µM] | TGI (SF-539 CNS) [µM] | TGI (MDA-N) [µM] | TGI (OVCAR-4 ovarian) [µM] | TGI (TK-10 renal) [µM] | TGI (NCI-H23 lung) [µM] | TGI (K-562 leukemia) [µM] | TGI (SK-MEL-2 melanoma) [µM] | TGI (HCT-15 colon) [µM] | TGI (HOP-92 NSCLC) [µM] | TGI (IGROV1 ovarian) [µM] |
| --- | --- | --- | --- | --- | --- | --- | --- | --- | --- | --- | --- | --- | --- | --- | --- | --- | --- | --- | --- | --- |
| N#Cc1c(Cl)nc2ccccc2c1N=[N+]=[N-] | 36.2 | 29 | 27.8 | 35.3 | 28.1 | 12.5 | 4.24 | 7.14 | 22.5 | 3.54 | 4.6 | 26.8 | 4.24 | 9.82 | 6.3 | 2.45 | 5.12 | 4.3 | 3.32 | 3.9 |
| CCOc1ccc(N=NS(=O)(=O)O)cc1 | > 100 | > 100 | > 100 | > 100 | > 100 | > 100 | > 100 | > 100 | > 100 | > 100 | > 100 | > 100 | > 100 | > 100 | > 100 | > 100 | > 100 | > 100 | > 100 | > 100 |
| N#Cc1c(O)c(N=Nc2ccc(Cl)cc2)c(=O)n2c1[nH]c1ccccc12 | > 100 | > 100 | > 100 | > 100 | > 100 | > 100 | > 100 | > 100 | > 100 | > 100 | > 100 | > 100 | > 100 | > 100 | > 100 | > 100 | > 100 | > 100 | 76.9 | > 100 |
| CC(C)(C)OC(=O)c1ccc(NCC2=CC(=O)C=CC2=O)cc1 | 30.9 | 41.6 | 24.9 | 40.1 | 31.6 | 27.1 | 5.35 | 26 | 12.3 | 22.6 | 12.7 | 25.3 | 22 | 21.3 | 22.2 | > 100 | 31.8 | 20.5 | 4.4 | 23.9 |
| O=C1c2ccccc2CC12Cc1ccccc1C2 | > 100 | > 100 | 54.2 | > 100 | > 100 | > 100 | > 100 | > 100 | > 100 | > 100 | > 100 | > 100 | > 100 | 97.4 | > 100 | > 100 | > 100 | > 100 | 91.9 | > 100 |
| CO[C@@H]1C[C@H]2N3CC[C@@]2(c2cc4c(cc2C3)OCO4)[C@H]2O[C@@H]12 | > 100 | > 100 | > 100 | > 100 | > 100 | > 100 | > 100 | > 100 | > 100 | > 100 | 2.88 | > 100 | > 100 | > 100 | > 100 | > 100 | > 100 | > 100 | > 100 | > 100 |
| CN(C)c1ccc(-c2ccc(N(C)C)c3n[se]nc23)c2n[se]nc12 | > 100 | > 100 | > 100 | > 100 | > 100 | > 100 | > 100 | > 100 | > 100 | > 100 | > 100 | > 100 | > 100 | > 100 | > 100 | > 100 | > 100 | > 100 | > 100 | > 100 |
| Cc1ccc(/C=C2\CCCC(CN(C)C)C2=O)cc1 (stereo not given) | 27.4 | 26.4 | 3.99 | 30.9 | 21.9 | 26.4 | > 100 | 5.09 | 1.92 | 2.88 | 6.61 | 3.85 | 3.8 | 8.26 | 4.97 | > 100 | 15.4 | 4.23 | 3.75 | 4.15 |
| Cc1c(N/C=C(\C#N)C(=O)c2ccc(Cl)cc2)c(=O)n(-c2ccccc2)n1C | > 100 | > 100 | > 100 | > 100 | > 100 | > 100 | > 100 | > 100 | > 100 | > 100 | > 100 | > 100 | > 100 | > 100 | > 100 | > 100 | > 100 | > 100 | > 100 | > 100 |
| O=c1c2cc(Cl)ccc2[nH]c2cc(O)cc(O)c12 | > 10 | > 10 | > 10 | > 10 | > 10 | > 10 | > 10 | > 10 | > 10 | > 10 | > 10 | > 10 | > 10 | > 10 | > 10 | > 10 | > 10 | > 10 | > 10 | > 10 |
